According to ChEMBL document CHEMBL4819016, “2-Propargylamino-naphthoquinone derivatives as multipotent agents for the treatment of Alzheimer's disease” (Eur J Med Chem, 2021):
The source made the active and inactive calls. The calls are words filed in the database; no cut-off is given here.

Experiments:
[1] = molecular target: Amyloid-beta precursor protein (Homo sapiens) (UniProt P05067); test: Inhibition of HFIP-pretreated amyloid beta (1 to 42) (unknown origin) self aggregation at 50 uM measured every 10 mins for 72 hrs by Thioflavin T flourimetric assay relative to control
Sequence of Amyloid-beta precursor protein (Homo sapiens) (P05067 whole entry): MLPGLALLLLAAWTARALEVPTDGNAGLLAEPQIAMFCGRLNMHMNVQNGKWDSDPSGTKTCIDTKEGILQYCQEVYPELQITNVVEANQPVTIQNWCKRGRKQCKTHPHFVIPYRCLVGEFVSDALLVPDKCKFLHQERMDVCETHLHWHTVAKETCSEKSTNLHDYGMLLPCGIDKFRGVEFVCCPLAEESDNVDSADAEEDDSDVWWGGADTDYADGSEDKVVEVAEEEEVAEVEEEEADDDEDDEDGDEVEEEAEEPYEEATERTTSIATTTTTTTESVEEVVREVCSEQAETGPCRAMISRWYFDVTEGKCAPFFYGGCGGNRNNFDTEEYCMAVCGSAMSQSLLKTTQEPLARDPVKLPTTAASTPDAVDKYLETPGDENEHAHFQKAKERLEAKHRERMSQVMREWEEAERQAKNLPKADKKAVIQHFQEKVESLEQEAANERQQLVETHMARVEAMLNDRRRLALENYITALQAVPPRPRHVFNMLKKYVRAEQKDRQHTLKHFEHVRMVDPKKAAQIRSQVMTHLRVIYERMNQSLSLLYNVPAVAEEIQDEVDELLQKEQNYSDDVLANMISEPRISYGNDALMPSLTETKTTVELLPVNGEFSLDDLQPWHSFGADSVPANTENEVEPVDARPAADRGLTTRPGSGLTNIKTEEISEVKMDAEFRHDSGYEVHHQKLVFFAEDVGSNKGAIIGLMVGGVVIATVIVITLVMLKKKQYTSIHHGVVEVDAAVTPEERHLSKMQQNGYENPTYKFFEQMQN

[2] = molecular target: T1, Amine oxidase [flavin-containing] A (Homo sapiens, UniProt P21397); test: Inhibition of human MAO-A preincubated for 5 mins followed by addition of Kynuramine substrate and measured after 30 mins by plate reader method
T1 sequence (P21397 whole entry): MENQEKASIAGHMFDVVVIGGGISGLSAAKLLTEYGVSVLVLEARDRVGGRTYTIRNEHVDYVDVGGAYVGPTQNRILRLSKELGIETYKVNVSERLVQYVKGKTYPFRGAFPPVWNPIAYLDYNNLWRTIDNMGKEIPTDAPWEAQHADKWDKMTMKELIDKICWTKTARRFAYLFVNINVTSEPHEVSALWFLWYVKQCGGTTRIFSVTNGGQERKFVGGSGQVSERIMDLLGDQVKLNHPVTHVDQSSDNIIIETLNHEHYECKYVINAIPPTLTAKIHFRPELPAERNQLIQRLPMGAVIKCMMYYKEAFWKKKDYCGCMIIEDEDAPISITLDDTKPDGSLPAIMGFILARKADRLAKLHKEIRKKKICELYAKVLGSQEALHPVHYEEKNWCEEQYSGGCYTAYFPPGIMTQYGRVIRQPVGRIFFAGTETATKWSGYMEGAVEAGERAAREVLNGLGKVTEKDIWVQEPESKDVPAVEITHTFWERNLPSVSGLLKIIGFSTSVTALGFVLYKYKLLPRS

[3] = molecular target: T2, Amine oxidase [flavin-containing] B (Homo sapiens, UniProt P27338); test: Inhibition of human MAO-B preincubated for 5 mins followed by addition of Kynuramine substrate and measured after 30 mins by plate reader method
T2 sequence (P27338 whole entry): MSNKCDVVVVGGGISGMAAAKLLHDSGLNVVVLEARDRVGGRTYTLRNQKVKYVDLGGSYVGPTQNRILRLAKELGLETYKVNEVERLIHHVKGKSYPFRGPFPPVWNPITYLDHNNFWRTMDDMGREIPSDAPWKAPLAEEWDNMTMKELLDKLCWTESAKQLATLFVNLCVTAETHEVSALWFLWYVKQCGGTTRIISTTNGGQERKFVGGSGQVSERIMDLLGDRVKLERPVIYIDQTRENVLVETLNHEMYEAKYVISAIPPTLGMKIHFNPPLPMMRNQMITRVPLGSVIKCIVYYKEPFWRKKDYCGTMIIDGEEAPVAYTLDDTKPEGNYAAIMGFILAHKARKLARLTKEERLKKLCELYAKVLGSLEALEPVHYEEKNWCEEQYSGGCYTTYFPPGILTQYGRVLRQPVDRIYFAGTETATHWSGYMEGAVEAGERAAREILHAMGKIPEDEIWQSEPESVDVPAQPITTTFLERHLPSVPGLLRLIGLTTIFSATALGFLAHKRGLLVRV

Homo sapiens = species: Homo sapiens; test: Selectivity index, ratio of IC50 for human MAO-A to IC50 for human MAO-B using Kynuramine as substrate measured by plate reader method
[4] = Permeability of compound at pH 7.4 measured after 6 hrs by PAMPA assay
SH-SY5Y = test: Cytotoxicity against human SH-SY5Y cells measured after 24 hrs by MTT assay; assay type: functional, cell-based
[5] = Cytotoxicity against mouse SIM-A9 cells measured after 24 hrs by MTT assay; assay type: functional, cell-based; settings: SIM-A9, 24 h
[6] = Cytotoxicity against mouse SIM-A9 cells assessed as non-toxic concentration measured after 24 hrs by MTT assay; assay type: functional
[7] = Metal chelating activity assessed as compound-Cu2+ complex formation measured by EPR-spectroscopy; assay type: functional
[8] = Radical scavenging activity of compound measured after 15 mins by ABTS radical scavenging activity in relative to clioquinol; assay type: functional
[9] = Radical scavenging activity of compound in presence of Cu+2 measured after 15 mins by ABTS radical scavenging activity in relative to clioquinol; assay type: functional
[10] = molecular target: T2, Amine oxidase [flavin-containing] B; test: Non-covalent inhibition of human MAO-B using Kynuramine as substrate measured upto 60 mins by plate reader method; settings: 1 h
[11] = molecular target: T2, Amine oxidase [flavin-containing] B; test: Reversible inhibition of human MAO-B using Kynuramine as substrate at pH 7 measured after 30 mins by plate reader method; settings: pH 7, 0.5 h
[12] = molecular target: T2, Amine oxidase [flavin-containing] B; test: Mixed inhibition of human MAO-B assessed as increase of Km with decrease of Vmax using Kynuramine at 0.3 to 2 uM measured after 30 mins by plate reader method; settings: 0.5 h, dose 0.3-2 µM
[13] = molecular target: T2, Amine oxidase [flavin-containing] B; test: Mixed inhibition of human MAO-B using Kynuramine as substrate measured upto 60 mins by plate reader method; settings: 1 h
[14] = molecular target: T2, Amine oxidase [flavin-containing] B; test: Competitive inhibition of human MAO-B assessed as increase of Km with constant Vmax using Kynuramine at 0.05 to 0.2 uM measured after 30 mins by plate reader method; settings: 0.5 h, dose 0.05-0.2 µM
[15] = Anti-inflammatory activity in mouse SIM-A9 cells assessed as decrease in LPS-induced IL-6 production at 8 uM preincubated for 1 hr followed by stimulation with LPS and measured after 23 hrs by ELISA assay; assay type: functional; design: scale not given: the % may be the effect or the level left; settings: time 24 hrs
[16] = Anti-inflammatory activity in mouse SIM-A9 cells assessed as decrease in LPS-induced IL-6 production at 4 uM preincubated for 1 hr followed by stimulation with LPS and measured after 23 hrs by ELISA assay; assay type: functional; design: scale not given: the % may be the effect or the level left; settings: time 24 hrs
[17] = Anti-inflammatory activity in mouse SIM-A9 cells assessed as decrease in LPS-induced IL-6 production at 2 uM preincubated for 1 hr followed by stimulation with LPS and measured after 23 hrs by ELISA assay; assay type: functional; design: scale not given: the % may be the effect or the level left; settings: time 24 hrs
[18] = Anti-inflammatory activity in mouse SIM-A9 cells assessed as decrease in LPS-induced TNF-alpha production at 8 uM preincubated for 1 hr followed by stimulation with LPS and measured after 23 hrs by ELISA assay; assay type: functional; design: scale not given: the % may be the effect or the level left; settings: time 24 hrs
[19] = Anti-inflammatory activity in mouse SIM-A9 cells assessed as decrease in LPS-induced TNF-alpha production at 4 uM preincubated for 1 hr followed by stimulation with LPS and measured after 23 hrs by ELISA assay; assay type: functional; design: scale not given: the % may be the effect or the level left; settings: time 24 hrs
[20] = Anti-inflammatory activity in mouse SIM-A9 cells assessed as decrease in LPS-induced TNF-alpha production at 2 uM preincubated for 1 hr followed by stimulation with LPS and measured after 23 hrs by ELISA assay; assay type: functional; design: scale not given: the % may be the effect or the level left; settings: time 24 hrs
[21] = Toxicity in human SH-SY5Y cells assessed by intracellular dehydrogenase activity at 10 uM measured after 24 hrs by WST-1 assay; assay type: cell-based; settings: read-out: Activity
[22] = Toxicity in human SH-SY5Y cells assessed by intracellular dehydrogenase activity at 100 uM measured after 24 hrs by WST-1 assay; assay type: cell-based; settings: read-out: Activity
[23] = Toxicity in human SH-SY5Y cells assessed by glutathione depletion at 10 uM measured after 24 hrs by monochlorobimane based plate reader assay; assay type: cell-based
[24] = Toxicity in human SH-SY5Y cells assessed by changes in mitochondrial membrane potential at 0.1 to 100 uM measured after 24 hrs by JC-1 probe based fluorescence reader assay; assay type: cell-based; settings: dose 0.1-100 µM
[25] = Toxicity in human SH-SY5Y cells assessed as change in respiratory states by measuring ROUTINE at 0.1 to 100 uM measured after 24 hrs by respirometer; assay type: cell-based; settings: dose 0.1-100 µM
[26] = Toxicity in human SH-SY5Y cells assessed as change in respiratory states by measuring LEAK at 0.1 to 100 uM measured after 24 hrs by respirometer; assay type: cell-based; settings: dose 0.1-100 µM
[27] = Toxicity in human SH-SY5Y cells assessed as change in respiratory states by measuring ETS at 0.1 to 100 uM measured after 24 hrs by respirometer; assay type: cell-based; settings: dose 0.1-100 µM
[28] = Toxicity in human SH-SY5Y cells assessed as change in respiratory states by measuring ROX at 0.1 to 100 uM measured after 24 hrs by respirometer; assay type: cell-based; settings: dose 0.1-100 µM
[29] = Anti-inflammatory activity in mouse SIM-A9 cells assessed as decrease in LPS-induced IL-6 production at 1 ug/ml preincubated for 1 hr followed by stimulation with LPS and measured after 23 hrs by ELISA assay; assay type: functional; design: scale not given: the % may be the effect or the level left; settings: dose 1 µg/ml; time 24 hrs
[30] = Anti-inflammatory activity in mouse SIM-A9 cells assessed as decrease in LPS-induced TNF-alpha production at 1 ug/ml preincubated for 1 hr followed by stimulation with LPS and measured after 23 hrs by ELISA assay; assay type: functional; design: scale not given: the % may be the effect or the level left; settings: dose 1 µg/ml; time 24 hrs

| Compound | inhibition [1] | IC50 [2] | IC50 [3] | Selectivity Index (Homo sapiens) | Papp at 6 h [4] | IC50 (SH-SY5Y) | IC50 [5] | MNTD [6] | also measured |
| --- | --- | --- | --- | --- | --- | --- | --- | --- | --- |
| C#CCN(C)C1=C(Cl)C(=O)c2ccccc2C1=O | 40.5% | 10 µM | 0.14 µM | 71 | 14 ×10⁻⁶ cm/s | 3.3 µM | 7.3 µM | 2 µM | Activity [7]: Active; Activity [8]: Active; Activity [9]: 5% |
| C#CCNC1=CC(=O)c2c(O)ccc(O)c2C1=O | 21.7% | – | – | – | 43.3 ×10⁻⁶ cm/s | 15 µM | 5.3 µM | 0.4 µM | – |
| C#CCNC1=C(Cl)C(=O)c2ccccc2C1=O | 18.4% | 7.76 µM | 0.05 µM | 155 | 29.4 ×10⁻⁶ cm/s | 4.6 µM | 10.4 µM | 4 µM | inhibition (INH) [13]: Active; inhibition (INH) [14]: Active; Activity [7]: Active; Activity [8]: Active |
| C#CCNC1=CC(=O)c2cccc(OCc3ccccc3)c2C1=O | 17.5% | – | – | – | 25.5 ×10⁻⁶ cm/s | > 64 µM | > 32 µM | 8 µM | Activity [15]: 49%; Activity [16]: 74%; Activity [17]: 95%; Activity [18]: 46%; Activity [19]: 74%; Activity [20]: 76%; viability at 24 h, 10 µM [21]: 89%; viability at 24 h, 100 µM [22]: 88%; Activity [23]: 89%; Activity [24]: Non-Toxic; Activity [25]: Non-Toxic; Activity [7]: Active; Activity [8]: 15%; Activity [9]: 10%; Activity [26]: Non-Toxic; Activity [27]: Non-Toxic; Activity [28]: Non-Toxic |
| C#CCN(C)C1=CC(=O)c2ccccc2C1=O | 67.4% | 6.64 µM | 8.62 µM | 0.77 | 18.5 ×10⁻⁶ cm/s | 22 µM | 36.1 µM | 8 µM | – |
| C[C@@H]1C[C@H]2[C@@H]3CCC4=CC(=O)C=C[C@]4(C)[C@@]3(F)[C@@H](O)C[C@]2(C)[C@@]1(O)C(=O)CO [DEXAMETHASONE] | – | – | – | – | – | – | – | – | Activity [29]: 40%; Activity [30]: 60% |
| C[C@H]1c2cccc(O)c2C(=O)C2=C(O)[C@]3(O)C(=O)C(C(N)=O)=C(O)[C@@H](N(C)C)[C@@H]3[C@@H](O)[C@@H]21 | 93.1% | – | – | – | – | – | – | – | – |

More lines, main results first:

| inhibition [1] | IC50 [2] | IC50 [3] | Selectivity Index (Homo sapiens) | Papp at 6 h [4] | Compound | IC50 (SH-SY5Y) | IC50 [5] | MNTD [6] | also measured |
| --- | --- | --- | --- | --- | --- | --- | --- | --- | --- |
| 15.5% | – | – | – | 18.8 ×10⁻⁶ cm/s | C#CCNC1=CC(=O)c2cccc(OC)c2C1=O | > 32 µM | 116 µM | 8 µM | – |
| 24% | 9.81 µM | 0.27 µM | 36 | 20.8 ×10⁻⁶ cm/s | C#CCNC1=CC(=O)c2ccccc2C1=O | > 64 µM | 34.6 µM | 4 µM | inhibition (INH) [10]: Active; inhibition (INH) [11]: Active; inhibition (INH) [12]: Active |
| 11.2% | – | – | – | 18.5 ×10⁻⁶ cm/s | C#CCNC1=CC(=O)c2cccc(OCC)c2C1=O | > 64 µM | > 64 µM | 32 µM | – |
| – | – | – | – | 0.04 ×10⁻⁶ cm/s | CNC(=C[N+](=O)[O-])NCCSCc1ccc(CN(C)C)o1 [RANITIDINE] | – | – | – | – |
